Measurements taken from patent publication US20130254944A1, “Herbicide Tolerant Soybeans and Methods of Use” (PIONEER HI BRED INTERNATIONAL INC, priority 2012, published 2013).

Legend:
Assay type in all cases: in vivo
[1] = test system: soybean having the Als2 mutation; assay: Greenhouse postemergence test of ALS-inhibiting herbicides, soybean with Als2 mutation; conditions: for Avg response (% phytotoxicity), Trait Als2: Table 2; for EC10, Als2: rate of herbicide estimated to cause 10% phytotoxic response, loglogistic fit; for phytotoxicity (in words), soybean containing only the Als2 gene: the higher doses
How it was run: (§1)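 Greenhouse-grown soybean lines (16 hr photoperiod) at V2 stage got postemergence sprays of eleven ALS-inhibiting actives from five chemical families. Rates were 0.5×–8× label rate at 30 gallons/acre in water with 0.25% nonionic surfactant. Phytotoxicity was scored visually (0–100) 14 days after application, with EC50/EC10 from log-logistic fits feeding isobole analysis (1:1 Als1:Als2 assumption).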

[2] = test system: soybean having the Als1 mutation; assay: Greenhouse postemergence test of ALS-inhibiting herbicides, soybean with Als1 mutation; conditions: for Avg response (% phytotoxicity), Trait Als1: Table 2; for EC10, Als1: rate of herbicide estimated to cause 10% phytotoxic response, loglogistic fit; for phytotoxicity (in words), soybean containing only the Als1 gene: the higher doses
How it was run: as §1

[3] = test system: soybean having both the Als1 and Als2 mutations; assay: Greenhouse postemergence test of ALS-inhibiting herbicides and isobole analysis, soybean with Als1 and Als2 mutations; conditions: for Avg response (% phytotoxicity), Trait Als1 + Als2: Table 2; for EC10, Als1 + Als2: rate of herbicide estimated to cause 10% phytotoxic response, loglogistic fit; for tolerance (in words), soybean containing both the Als1 and the Als2 genes: the higher doses
How it was run: as §1

wild type soybean = assay: Greenhouse postemergence test of ALS-inhibiting herbicides, wild type soybean
How it was run: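 Wild-type soybean (also lines carrying Als1, Als2 or both mutations) grown in greenhouse, 16 hr photoperiod, sprayed postemergence at V2 with ALS-inhibiting herbicides at 0.5×, 1×, 2×, 4× and 8× label rate in water with 0.25% nonionic surfactant, 30 gallons/acre. Phytotoxicity scored visually 14 days after application, 0–100 scale (0 none, 100 plant death).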

[4] = 8.75 g ai/ha postemergence at V2, scored 14 days after application
[5] = 17.5 g ai/ha postemergence at V2, scored 14 days after application
[6] = 35 g ai/ha postemergence at V2, scored 14 days after application
[7] = 70 g ai/ha postemergence at V2, scored 14 days after application
[8] = 140 g ai/ha postemergence at V2, scored 14 days after application
[9] = 4.38 g ai/ha postemergence at V2, scored 14 days after application
[10] = rates 0.5x to 8x the label rate

CCS(=O)(=O)c1cccnc1S(=O)(=O)NC(=O)Nc1nc(OC)cc(OC)n1 [Rimsulfuron]
Soybean response (percent phytotoxicity), Als2 [1, 4]: 0%
Avg response (% phytotoxicity), Trait Als2 ([1]; 8.75 g ai/ha): 0%
Soybean response (percent phytotoxicity), Als2 [1, 5]: 0%
Avg response (% phytotoxicity), Trait Als2 ([1]; 17.5 g ai/ha): 0%
Soybean response (percent phytotoxicity), Als2 [1, 6]: 20%
Avg response (% phytotoxicity), Trait Als2 ([1]; 35 g ai/ha): 20%
Soybean response (percent phytotoxicity), Als2 [1, 7]: 60%
Avg response (% phytotoxicity), Trait Als2 ([1]; 70 g ai/ha): 60%
Soybean response (percent phytotoxicity), Als2 [1, 8]: 80%
Avg response (% phytotoxicity), Trait Als2 ([1]; 140 g ai/ha): 80%
EC10, Als2 [1]: 23.88 g ai/ha
phytotoxicity (in words), soybean containing only the Als2 gene [1]: substantial phytotoxicity
Soybean response (percent phytotoxicity), Als1 [2, 4]: 0%
Avg response (% phytotoxicity), Trait Als1 ([2]; 8.75 g ai/ha): 0%
Soybean response (percent phytotoxicity), Als1 [2, 5]: 0%
Avg response (% phytotoxicity), Trait Als1 ([2]; 17.5 g ai/ha): 0%
Soybean response (percent phytotoxicity), Als1 [2, 6]: 20%
Avg response (% phytotoxicity), Trait Als1 ([2]; 35 g ai/ha): 20%
Soybean response (percent phytotoxicity), Als1 [2, 7]: 40%
Avg response (% phytotoxicity), Trait Als1 ([2]; 70 g ai/ha): 40%
Soybean response (percent phytotoxicity), Als1 [2, 8]: 80%
Avg response (% phytotoxicity), Trait Als1 ([2]; 140 g ai/ha): 80%
EC10, Als1 [2]: 28.61 g ai/ha
phytotoxicity (in words), soybean containing only the Als1 gene [2]: substantial phytotoxicity
Soybean response (percent phytotoxicity), Als1 + Als2 [3, 4]: 0%
Avg response (% phytotoxicity), Trait Als1 + Als2 ([3]; 8.75 g ai/ha): 0%
Soybean response (percent phytotoxicity), Als1 + Als2 [3, 5]: 0%
Avg response (% phytotoxicity), Trait Als1 + Als2 ([3]; 17.5 g ai/ha): 0%
Soybean response (percent phytotoxicity), Als1 + Als2 [3, 6]: 0%
Avg response (% phytotoxicity), Trait Als1 + Als2 ([3]; 35 g ai/ha): 0%
Soybean response (percent phytotoxicity), Als1 + Als2 [3, 7]: 10%
Avg response (% phytotoxicity), Trait Als1 + Als2 ([3]; 70 g ai/ha): 10%
Soybean response (percent phytotoxicity), Als1 + Als2 [3, 8]: 10%
Avg response (% phytotoxicity), Trait Als1 + Als2 ([3]; 140 g ai/ha): 10%
EC10, Als1 + Als2 [3]: 123.22 g ai/ha
tolerance (in words), soybean containing both the Als1 and the Als2 genes [3]: extremely tolerant
Soybean response (percent phytotoxicity), Wild type (wild type soybean; [4]): 10%
Soybean response (percent phytotoxicity), Wild type (wild type soybean; [5]): 35%
Soybean response (percent phytotoxicity), Wild type (wild type soybean; [6]): 85%
Soybean response (percent phytotoxicity), Wild type (wild type soybean; [7]): 95%
Soybean response (percent phytotoxicity), Wild type (wild type soybean; [8]): 98%

Cc1cc(C)nc(NC(=O)NS(=O)(=O)c2ccccc2C(=O)O)n1 [Sulfometuron]
Soybean response (percent phytotoxicity), Als2 [1, 9]: 35%
Avg response (% phytotoxicity), Trait Als2 ([1]; 4.38 g ai/ha): 35%
Soybean response (percent phytotoxicity), Als2 [1, 4]: 40%
Avg response (% phytotoxicity), Trait Als2 ([1]; 8.75 g ai/ha): 40%
Soybean response (percent phytotoxicity), Als2 [1, 5]: 70%
Avg response (% phytotoxicity), Trait Als2 ([1]; 17.5 g ai/ha): 70%
Soybean response (percent phytotoxicity), Als2 [1, 6]: 75%
Avg response (% phytotoxicity), Trait Als2 ([1]; 35 g ai/ha): 75%
Soybean response (percent phytotoxicity), Als2 [1, 7]: 80%
Avg response (% phytotoxicity), Trait Als2 ([1]; 70 g ai/ha): 80%
EC10, Als2 [1]: 0.76 g ai/ha
phytotoxicity (in words), soybean containing only the Als2 gene [1]: substantial phytotoxicity
Soybean response (percent phytotoxicity), Als1 [2, 9]: 0%
Avg response (% phytotoxicity), Trait Als1 ([2]; 4.38 g ai/ha): 0%
Soybean response (percent phytotoxicity), Als1 [2, 4]: 0%
Avg response (% phytotoxicity), Trait Als1 ([2]; 8.75 g ai/ha): 0%
Soybean response (percent phytotoxicity), Als1 [2, 5]: 10%
Avg response (% phytotoxicity), Trait Als1 ([2]; 17.5 g ai/ha): 10%
Soybean response (percent phytotoxicity), Als1 [2, 6]: 55%
Avg response (% phytotoxicity), Trait Als1 ([2]; 35 g ai/ha): 55%
Soybean response (percent phytotoxicity), Als1 [2, 7]: 80%
Avg response (% phytotoxicity), Trait Als1 ([2]; 70 g ai/ha): 80%
EC10, Als1 [2]: 14.93 g ai/ha
phytotoxicity (in words), soybean containing only the Als1 gene [2]: substantial phytotoxicity
Soybean response (percent phytotoxicity), Als1 + Als2 [3, 9]: 0%
Avg response (% phytotoxicity), Trait Als1 + Als2 ([3]; 4.38 g ai/ha): 0%
Soybean response (percent phytotoxicity), Als1 + Als2 [3, 4]: 0%
Avg response (% phytotoxicity), Trait Als1 + Als2 ([3]; 8.75 g ai/ha): 0%
Soybean response (percent phytotoxicity), Als1 + Als2 [3, 5]: 0%
Avg response (% phytotoxicity), Trait Als1 + Als2 ([3]; 17.5 g ai/ha): 0%
Soybean response (percent phytotoxicity), Als1 + Als2 [3, 6]: 10%
Avg response (% phytotoxicity), Trait Als1 + Als2 ([3]; 35 g ai/ha): 10%
Soybean response (percent phytotoxicity), Als1 + Als2 [3, 7]: 5%
Avg response (% phytotoxicity), Trait Als1 + Als2 ([3]; 70 g ai/ha): 5%
EC10, Als1 + Als2 [3]: 114.81 g ai/ha
tolerance (in words), soybean containing both the Als1 and the Als2 genes [3]: extremely tolerant
Soybean response (percent phytotoxicity), Wild type (wild type soybean; [9]): 60%
Soybean response (percent phytotoxicity), Wild type (wild type soybean; [4]): 95%
Soybean response (percent phytotoxicity), Wild type (wild type soybean; [5]): 98%
Soybean response (percent phytotoxicity), Wild type (wild type soybean; [6]): 98%
Soybean response (percent phytotoxicity), Wild type (wild type soybean; [7]): 98%

COc1nc(C)nc(NC(=O)NS(=O)(=O)c2ccsc2C(=O)O)n1 [Thifensulfuron]
Soybean response (percent phytotoxicity), Als2 [1, 9]: 0%
Soybean response (percent phytotoxicity), Als2 [1, 4]: 0%
Soybean response (percent phytotoxicity), Als2 [1, 5]: 0%
Soybean response (percent phytotoxicity), Als2 [1, 6]: 0%
Soybean response (percent phytotoxicity), Als2 [1, 7]: 0%
phytotoxic response (in words), Als2 [1, 10]: did not cause any phytotoxic response
Soybean response (percent phytotoxicity), Als1 [2, 9]: 0%
Soybean response (percent phytotoxicity), Als1 [2, 4]: 0%
Soybean response (percent phytotoxicity), Als1 [2, 5]: 0%
Soybean response (percent phytotoxicity), Als1 [2, 6]: 0%
Soybean response (percent phytotoxicity), Als1 [2, 7]: 0%
phytotoxic response (in words), Als1 [2, 10]: did not cause any phytotoxic response
Soybean response (percent phytotoxicity), Als1 + Als2 [3, 9]: 0%
Soybean response (percent phytotoxicity), Als1 + Als2 [3, 4]: 0%
Soybean response (percent phytotoxicity), Als1 + Als2 [3, 5]: 0%
Soybean response (percent phytotoxicity), Als1 + Als2 [3, 6]: 0%
Soybean response (percent phytotoxicity), Als1 + Als2 [3, 7]: 0%
phytotoxic response (in words), Als1+Als2 [3, 10]: did not cause any phytotoxic response
Soybean response (percent phytotoxicity), Wild type (wild type soybean; [9]): 0%
Soybean response (percent phytotoxicity), Wild type (wild type soybean; [4]): 10%
Soybean response (percent phytotoxicity), Wild type (wild type soybean; [5]): 10%
Soybean response (percent phytotoxicity), Wild type (wild type soybean; [6]): 25%
Soybean response (percent phytotoxicity), Wild type (wild type soybean; [7]): 45%

COc1nc(C)nc(N(C)C(=O)NS(=O)(=O)c2ccccc2C(=O)O)n1 [Tribenuron]
Soybean response (percent phytotoxicity), Als2 [1, 9]: 0%
Avg response (% phytotoxicity), Trait Als2 ([1]; 4.38 g ai/ha): 0%
Soybean response (percent phytotoxicity), Als2 [1, 4]: 15%
Avg response (% phytotoxicity), Trait Als2 ([1]; 8.75 g ai/ha): 15%
Soybean response (percent phytotoxicity), Als2 [1, 5]: 40%
Avg response (% phytotoxicity), Trait Als2 ([1]; 17.5 g ai/ha): 40%
Soybean response (percent phytotoxicity), Als2 [1, 6]: 60%
Avg response (% phytotoxicity), Trait Als2 ([1]; 35 g ai/ha): 60%
Soybean response (percent phytotoxicity), Als2 [1, 7]: 65%
Avg response (% phytotoxicity), Trait Als2 ([1]; 70 g ai/ha): 65%
EC10, Als2 [1]: 4.96 g ai/ha
Soybean response (percent phytotoxicity), Als1 [2, 9]: 0%
Avg response (% phytotoxicity), Trait Als1 ([2]; 4.38 g ai/ha): 0%
Soybean response (percent phytotoxicity), Als1 [2, 4]: 0%
Avg response (% phytotoxicity), Trait Als1 ([2]; 8.75 g ai/ha): 0%
Soybean response (percent phytotoxicity), Als1 [2, 5]: 0%
Avg response (% phytotoxicity), Trait Als1 ([2]; 17.5 g ai/ha): 0%
Soybean response (percent phytotoxicity), Als1 [2, 6]: 0%
Avg response (% phytotoxicity), Trait Als1 ([2]; 35 g ai/ha): 0%
Soybean response (percent phytotoxicity), Als1 [2, 7]: 10%
Avg response (% phytotoxicity), Trait Als1 ([2]; 70 g ai/ha): 10%
EC10, Als1 [2]: 70 g ai/ha
Soybean response (percent phytotoxicity), Als1 + Als2 [3, 9]: 0%
Avg response (% phytotoxicity), Trait Als1 + Als2 ([3]; 4.38 g ai/ha): 0%
Soybean response (percent phytotoxicity), Als1 + Als2 [3, 4]: 0%
Avg response (% phytotoxicity), Trait Als1 + Als2 ([3]; 8.75 g ai/ha): 0%
Soybean response (percent phytotoxicity), Als1 + Als2 [3, 5]: 0%
Avg response (% phytotoxicity), Trait Als1 + Als2 ([3]; 17.5 g ai/ha): 0%
Soybean response (percent phytotoxicity), Als1 + Als2 [3, 6]: 0%
Avg response (% phytotoxicity), Trait Als1 + Als2 ([3]; 35 g ai/ha): 0%
Soybean response (percent phytotoxicity), Als1 + Als2 [3, 7]: 0%
Avg response (% phytotoxicity), Trait Als1 + Als2 ([3]; 70 g ai/ha): 0%
EC10, Als1 + Als2 [3]: >70 g ai/ha
Soybean response (percent phytotoxicity), Wild type (wild type soybean; [9]): 10%
Soybean response (percent phytotoxicity), Wild type (wild type soybean; [4]): 70%
Soybean response (percent phytotoxicity), Wild type (wild type soybean; [5]): 93%
Soybean response (percent phytotoxicity), Wild type (wild type soybean; [6]): 98%
Soybean response (percent phytotoxicity), Wild type (wild type soybean; [7]): 98%
